# Reference: patent US8623832B2, “Peptide compositions that bind TLR-4” (The Board of Regents of the University of Oklahoma, priority 2011, dated 2014)
# Where no end group is shown, it is not given here.
# Key:
# DSS-colitis = experiment: Dextran sodium sulfate (DSS)-colitis model in mice; type: in vivo; conditions: 3% DSS 7 days, SPA4 100 μg daily intraperitoneal
# Description: SPA4 peptide reduced serum TNF-α and inflammation in Dextran sodium sulfate (DSS)-colitis model in mice (FIG. 18). SPA4 peptide was also evaluated in the mouse model of DSS-colitis. DSS (3% in drinking water) was given to the mice for a period of 7 days. In the treatment group, mice were simultaneously injected with SPA4 peptide (100 μg daily via intraperitoneal route). After 2 days of recovery period, the mice were weighed, colons were macroscopically examined, and blood samples were harvested. The TNF-α levels were measured by ELISA.
# TLR4 = TLR4 expression in SW480 cells by immunocytochemistry / confocal microscopy; type: cell-based, human; conditions: LPS 4 hours then SPA4 1 hour, more pronounced with 100 μM
# Description: Expression of TLR4: Next, the effect of SPA4 peptide on the expression of TLR4 in SW480 cells was investigated by immunocytochemistry and laser confocal microscopy. Briefly, about 2.5×10^4 cells were seeded in an 8-well chamber slide (Thermo Fisher Scientific, Rochester, N.Y.) in complete medium. The cells were treated with E. coli O111:B4-derived, highly-purified, low-protein LPS (100 ng/ml or 1.0 μg/ml; Calbiochem, CA) for 4 hours following 1 hour incubation with SPA4 peptide (1, 10 and 100 μM). The cells were fixed in 3.5% paraformaldehyde in Dulbecco's PBS (DPBS) and permeabilized with 0.05% saponin solution (Inaba et al. 1998). The wells were washed with DPBS supplemented with 1% FBS and 0.05% saponin, and stained with TLR4-specific antibody (1:50 dilution, Abcam, Mass.) and 10 μg/ml Alexa-fluor 488-labeled secondary anti-rabbit IgG antibody (Invitrogen-Molecular Probes, CA). After washing, the cells were stained with 100 nM rhodamin-phallodin (Cytoskeleton Inc, CO) and 1 μg/ml Hoechst 33342 dyes (Invitrogen-Molecular Probes, CA). Confocal microscopic images were acquired at the Imaging core facility of the Oklahoma Medical Research Foundation, Oklahoma City, using the Zeiss LSM-510 META laser scanning confocal microscope. Images were acquired with lens objective of 63× with the x/y stack sizes being 146.2 μm using band pass filter specifications at 435-485, 560-615 and 505-530.
# [1] = system: NF-κB pathway molecules (IKBα, phosphorylated IKBα, p65, phosphorylated p65, RelB, COX-2); experiment: Expression of NF-κB pathway molecules in SW480 cell lysates by immunoblotting; type: cell-based, human
# Description: Expression of NF-κB pathway molecules by immunoblotting: The expression of NF-κB pathway molecules (inhibitor kappa-Bα: IKBα, phosphorylated IKBα, p65, phosphorylated p65, RelB and COX-2) in SW480 cell-lysates treated with LPS±SPA4 peptide was studied by immunoblotting. For the immunoblotting, 10 μg of total cell-lysate proteins were fractionated on Novex 4-20% Tris-glycine gradient SDS-PAGE gel (Invitrogen, Carlsbad, Calif.) by electrophoresis. Separated proteins were electro-transferred onto a nitrocellulose membrane using iBlot gel transfer device (Invitrogen, Carlsbad, Calif.). The non-specific sites were blocked by incubating the membrane with 7% skimmed milk in Tris-buffered saline with 0.4% TWEEN®-20 (TBST) for 1 hour at room temperature. The blocked membranes were incubated overnight at 4° C. with 1:1000 diluted anti-human antibodies against NF-κB canonical pathway molecules: phosphorylated inhibitor kappa-Bα (IKBα), total-IKBα, p65, RelB (Cell Signaling Technology, Inc., Danvers, Mass.), phosphorylated p65 (Santacruz Biotech, Inc., Santa Cruz, Calif.) and cyclooxygenase-2 (COX-2; Santacruz Biotech, Inc., Santa Cruz, Calif.). The membranes were washed with TBST and incubated at room temperature for 45 minutes with 1:3500 diluted horse-radish peroxidase (HRP)-conjugated-secondary antibody (Sigma-Aldrich, St. Louis, Mo.). The immunoreactive bands were detected by Super Signal West Femto detection reagent (Thermo Fisher Scientific, Barrington, Ill.). In order to ensure equal protein loading in the wells, the membranes were stripped of probing antibodies at 60° C. for 45 minutes using a stripping solution containing 10% SDS, 0.5 M Tris and […] (35 μl/ml), and re-probed with anti-actin antibody (Sigma-Aldrich, MO; 1:1000 in TBST). The immunoblots were imaged using the Ultraquant image acquisition program (UltraLum Inc., Claremont, Calif.). The densitometric readings were obtained for immunoreactive bands with Image J 1.42 q program (NIH, USA). Finally, arbitrary densitometric values for proteins of interest were normalized with those of β-actin.
sequence,measurement,setting,value
"GDFRYSDGTPVNYTNWYRGE [SPA4, GDFRYSDGT PVNYTNWYRGE]",colitis symptoms (distension and shortening of the colon),DSS-colitis,reduced the colitis symptoms
same,DSS-induced serum levels of circulating TNF-α,DSS-colitis; ELISA,completely inhibited
same,body weight,DSS-colitis; compared to DSS-colitis mice,recovered
same,colon length,DSS-colitis; compared to DSS-colitis mice,recovered
same,LPS-stimulated TLR4 expression,TLR4,reduced the LPS-stimulated TLR4 expression to basal level
same,expression of RelB,[1]; LPS-challenged,No effect
same,expression of phosphorylated IKBα,[1]; LPS-challenged,No effect
same,"expression of COX-2, short-term treatment","[1]; LPS-challenged, 5 hours model",decrease
same,"expression of phosphorylated p65, short-term treatment","[1]; LPS-challenged, 5 hours model",decrease
same,"expression of total IKBα, short-term treatment","[1]; LPS-challenged, 5 hours model",increase
same,"expression of COX-2, long-term treatment","[1]; LPS-challenged, 9 hours model",remained low
same,"expression of phosphorylated p65, long-term treatment","[1]; LPS-challenged, 9 hours model",remained low
same,"expression of total IKBα, long-term treatment","[1]; LPS-challenged, 9 hours model",decreased
same,"expression of NF-κB signaling molecules, SPA4 peptide alone",[1]; no LPS,"did not affect the expression of any of the NF-κB signaling molecules studied, except for COX-2"
